Here are results for three compounds from the NIST ThermoML archive (doi:10.1021/acs.jced.7b00782).

± gives the expanded uncertainty stated by the source.

The conditions of this data set: Closed cell (Static) method.

Broadly, the vapor or sublimation pressure is the pressure of vapour in equilibrium with the condensed phase. On to `[N]=O` [nitrogen oxide (NO)], for which the “vapor or sublimation pressure” value (105.89 K, Crystal) was 13.6 ± 20 kPa; the “vapor or sublimation pressure” value (127.32 K, Liquid) came out at 188.3 ± 23 kPa; the “vapor or sublimation pressure” value (135.8 K, Liquid) was 410.9 ± 26 kPa; the “vapor or sublimation pressure” value (146.22 K, Liquid) is 987.8 ± 30 kPa.

On to `[C-]#[O+]` [carbon monoxide], for which the “vapor or sublimation pressure” value runs as follows: (105.89 K, Liquid) 830 ± 40 kPa; (127.32 K, Liquid) 2682 ± 40 kPa.

Take `[Ar]` [argon]: the “vapor or sublimation pressure” value (135.8 K, Liquid) amounted to 2605.6 ± 58 kPa and the “vapor or sublimation pressure” value (146.22 K, Liquid) was found to be 4028.9 ± 58 kPa.
